Data reported in patent US11733246B2, “Compositions, imaging, and therapeutic methods targeting folate receptor 1 (FOLR1)” (Indi Molecular, Inc., priority 2020, dated 2023).
“And” between values parts separate entries of the source, which are not always exact repeats. Equal entries are not always repeated. Numbered stars: 1 amine (or outer) side, 2 acyl side, 3 side chain; on linkers, the order of the positions; unused ones are H or OH. Bridge positions count the residues as written; N and C are the ends. Square brackets hold non-standard residues; d marks the D form. Triazole bridges read from a SMILES are 1,4-linked. Peptide text beside a SMILES is read from it. * marks the point of attachment. DOTA = O=C(O)CN1CCN(CC(=O)O)CCN(CC(=O)*)CCN(CC(=O)O)CC1; Pteroyl = Nc1nc2ncc(CNc3ccc(C(=O)*)cc3)nc2c(=O)[nH]1; Biotin = O=C1N[C@H]2[C@H](CS[C@H]2CCCCC(=O)*)N1; PEG10 = NCCOCCOCCOCCOCCOCCOCCOCCOCCOCCOCCC(=O)O; Butanoyl(4-(4-MePh)) = Cc1ccc(CCCC(=O)*)cc1; Lys(N3) = [N-]=[N+]=NCCCC[C@H](N)C(=O)O; γGlu = O=C(O)[C@H](CCC(=O)[*:2])N[*:1]; AEEEA = NCCOCCOCCOCC(=O)O; Pra = C#CC[C@H](N)C(=O)O

Assays:
[1] = test system: OVCAR3 cells; test: Cell internalization assay (acid wash, flow cytometry); assay type: cell-based, human
Protocol: FIG. 10 is a diagram of an assay for assessing cell internalization FOLR1 heterobiligands.
The folate-hshta (SEQ ID NO:6) Nterm heterobiligand was also evaluated in cell penetration imaging assays (FIG. 10). OVCAR3 and PC-3 cells were incubated with the test article at 37° C. for 1 hour. Flow cytometry analysis of the resulting treated cells indicated strong binding to FOLR1 (+) cells. To understand the proportion bound to the surface but not internalized, the cells were briefly washed with acid to liberate the non-internalized peptide.
(§1) Nonclinical studies were first conducted with Folate-hshta-PEG10-PEG10-K(Biotin), where Folate-hshta is the targeting heterobiligand, PEG10 is a deca(ethylene glycol) linker, and K(Biotin) is the detection label. […] Cross reactivity with the murine folate receptor was also observed. […] In the merged image, purple puncta were observed indicating co-localization of internalized heterobiligand with early endosomes (Rab5a+ vesicles) in OVCAR3 cells.

[2] = biological target: T1, FOLR1 (Homo sapiens, UniProt P15328); test: ELISA assay of FOLR1 binding; details: ELISA
T1 construct: His; purchased SinoBiological 11241-H08H
From the text: FIG. 5 is a diagram of ELISA assay of FOLR1 binding of heterobiligands.
Nonclinical studies were first conducted with Folate-hshta-PEG10-PEG10-K(Biotin), where Folate-hshta is the targeting heterobiligand, PEG10 is a deca(ethylene glycol) linker, and K(Biotin) is the detection label.

[3] = test system: PC3 FOLR1− cells; test: Flow cytometry binding to FOLR1 (−) cells; assay type: cell-based, human
Protocol: (§2) Both the kyeet (SEQ ID NO:9) and hshta (SEQ ID NO:6)-derived biligands were tested by flow cytometry for binding to FOLR1 (+) and FOLR1 (−) cell lines (FIGS. 6 and 7). The human ovarian adenocarcinoma-derived cell line OVCAR3 has robust FOLR1 expression and was selected as the FOLR1 (+) cell line. The human prostate adenocarcinoma-derived cell line PC-3 was selected as a FOLR1 (−) cell line.

[4] = biological target: T1, FOLR1; test: Competition ELISA with folic acid; assay type: binding
Protocol: A competition experiment was conducted to further understand the binding kinetics of the lead heterobiligand (folate-hshta (SEQ ID NO:6) Nterm heterobiligand).
as §1

[5] = test system: OVCAR3 FOLR1+ cells; test: Flow cytometry binding to FOLR1 (+) cells; assay type: cell-based, human
Protocol: as §2
Competition at the cellular level was also probed.
Increasing the serum-bound fraction of the peptide may decrease first pass removal of the heterobiligand, and drive compound retention of tumor over kidney. Constructs bearing the known albumin binder 4-methylphenyl butyric acid (4-MPBA) were synthesized. These compounds were evaluated in vitro to verify binding fidelity to FOLR1. The modified heterobiligands were incubated at 400 nM with OVCAR3 and PC-3 cells for 20 minutes at 37° C. in complete media containing 20% FBS. They both bind to OVCAR3 FOLR1+ cells with similar binding affinities as the original heterobiligand studied (FIG. 14). […] Similar activity of these heterobiligands is anticipated in vivo.

[6] = test system: OVCAR3 xenografts; test: 177Lu FOLR1 radioligand therapy in OVCAR3 xenograft model; assay type: in vivo, mouse
Protocol: Water and food were provided ad libitum. […] Tumor growth was monitored by caliper measurements.
OVCAR3 tumor bearing mice were used to study FOLR1-directed radioligand therapy (RLT) for treatment of ovarian cancer. Animals were administered a single dose of heterobiligand (vehicle control) or 111, 37, 18.5, 9.25, or 3.7 MBq [^177Lu]DOTA-labeled heterobiligand. Mice received the dose intravenously (i.v.) via the tail vein. To monitor the effect of the RLT, tumor size measurements were taken twice weekly and body weights were measured.
The engraftment was allowed to expand until palpable tumor sizes ranging in size from 218-384 mm^3 were detected. […] These observed effects were consistant with radiation overdosing. […] The best response was observed using 9.25 MBq Lu-177 Heterobiligand (compound #2809).
Single dose treatments at 18.5 MBq/nmol specific activity. OVCAR3 mouse model was used. 10^7 cell tumors were implanted in the mice one month before administration of ^177Lu-#6305. Five mice each were administered Cold #6305, 9.25 MBq Lu177-#6305, and 14.8 MBq Lu177-#6305, and two mice were administered 29.6 MBq Lu177-#6305. Tumor growth and body weight were then monitored.
Female NSG mice were implanted subcutaneously with OVCAR3 cells. Once tumors reached volumes of 200 mm^3, the animals were treated with 177-Lu 7327. Three treatment arms of 9.25 MBq, 14.8 MBq, and 29.6 MBq were studied.
Female NSG mice were implanted subcutaneously with human OVCAR3 (FOLR+) ovarian cancer cells. Once tumors reached volumes of 200 mm^3, the animals were treated with Indi ^177Lu-7327. One treatment arm of 74 MBq and a control group of 0 MBq were studied (FIGS. 41 and 38A). […] The second dose was administered 21 days following the first dose. Statistically significant differential between treated and control was reached 24 days post-injection (three days following the second dose) for the 74 MBq arm. P values (* for p≤0.05, ** for p≤0.01) were determined by ordinary one-way ANOVA with Tukey's multiple comparisons test.

[7] = mouse, in vivo
Protocol: At endpoint, mice were sacrificed and plasma and tissues (tumor, kidney, liver, lung, muscle) were collected. Plasma samples were assayed for urea and creatinine biomarkers indicative of nephrotoxicity. Tissue samples were fixed in 10% buffered formalin, transferred to 70% ethanol, and embedded in paraffin for immunohistochemistry.
The heterobiligand dosed in these studies is Folate-hshta-PEG3-Lys(MPBA)-Lys(DOTA) (Compound #2809; SEQ ID NO:6)) labeled with ^177Lu. Plasma samples taken from tumor-bearing mice (at each dose) were assayed for biomarkers indicative of nephrotoxicity. These samples were compared to plasma taken from normal mice. Elevated urea levels in plasma could indicate kidney damage. Endogenous urea is converted to ammonia and carbon dioxide by the addition of urease. Berthelot's reagent reacts with the dissolved ammonia. The resulting green coloration can be used to back-calculate the amount of urea present in the original plasma sample.
Mouse plasma samples (five mice each from the 0 MBq control group, 3.7 MBq group, and 9.25 MBq group) taken at endpoint and normal mouse plasma were evaluated in urea assays to gain information on renal function. […]
In order to understand the toxicity-limiting tissues and organs, plasma was collected from the therapy studies and analyzed for blood urea nitrogen (BUN) and creatinine. […]

[8] = Plasma protein binding (equilibrium dialysis), human; assay type: in vitro ADME; details: human
Procedure, shortened: (§3)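 Equilibrium dialysis across 12-14 kDa cellulose membranes; test articles at 2 μM in mouse or human plasma adjusted to pH 7.0-8.0, in triplicate. Dialysed 4 hours at 37° C. with slow shaking; both sides quantified by LC-MS/MS to give fraction bound.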

[9] = Plasma protein binding (equilibrium dialysis), mouse; assay type: in vitro ADME, CD-1 mouse; details: CD-1, mouse
Procedure, shortened: as §3

[10] = biological target: human recombinant NEP (Homo sapiens, UniProt P08473); assay type: biochemical
Procedure, shortened: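 Peptide bearing GFK linker (10 μM) incubated with recombinant human NEP (10, 1, 0.1, 0.01 nM or none) at 37° C. for 1 h. Cleavage tracked by MALDI-MS, cleaved adduct identified by mass, and by HPLC as parent-peak depletion with new-peak appearance; non-cleavable PEG3 linker assayed for specificity.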

[11] = in vitro; details: human, plasma, pH 7.4, Plasma Stability (t 1/2)
[12] = in vitro; details: CD-1, mouse, plasma, pH 7.4, Plasma Stability (t 1/2)
Protocol: Plasma was thawed in a 37° C. water bath. Residual clots were removed via centrifugation at 4000 rpm for 5 minutes. The pH of the plasma was adjusted to 7.4 if required. Test articles were diluted to 100 μM by diluting a 1 mM working solution (in DMSO) with 45% methanol in water. To 98 μL of plasma was added 2 μL of the 100 μM solution, resulting in 2 μM final concentration of the test article. Samples were incubated at 37° C. in a water bath. At the indicated time points (0, 10, 30, 60, 120 minutes) 100 μL of 4% H3PO4 was added followed by 800 μL of stop solution (200 ng/mL tolbutamide and 200 ng/mL labetalol in 100% acetonitrile). The samples were centrifuged and the plasma protein-free supernatant (100 μL) was subjected to LC-MS/MS analysis.

T1 sequence (P15328 25-234): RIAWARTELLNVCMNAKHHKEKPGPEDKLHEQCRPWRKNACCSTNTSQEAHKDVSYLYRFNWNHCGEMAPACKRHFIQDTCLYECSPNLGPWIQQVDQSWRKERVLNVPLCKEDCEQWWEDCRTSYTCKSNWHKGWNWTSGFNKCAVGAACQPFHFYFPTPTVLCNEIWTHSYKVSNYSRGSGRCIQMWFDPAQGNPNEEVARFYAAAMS
Sequence of human recombinant NEP (P08473 whole entry): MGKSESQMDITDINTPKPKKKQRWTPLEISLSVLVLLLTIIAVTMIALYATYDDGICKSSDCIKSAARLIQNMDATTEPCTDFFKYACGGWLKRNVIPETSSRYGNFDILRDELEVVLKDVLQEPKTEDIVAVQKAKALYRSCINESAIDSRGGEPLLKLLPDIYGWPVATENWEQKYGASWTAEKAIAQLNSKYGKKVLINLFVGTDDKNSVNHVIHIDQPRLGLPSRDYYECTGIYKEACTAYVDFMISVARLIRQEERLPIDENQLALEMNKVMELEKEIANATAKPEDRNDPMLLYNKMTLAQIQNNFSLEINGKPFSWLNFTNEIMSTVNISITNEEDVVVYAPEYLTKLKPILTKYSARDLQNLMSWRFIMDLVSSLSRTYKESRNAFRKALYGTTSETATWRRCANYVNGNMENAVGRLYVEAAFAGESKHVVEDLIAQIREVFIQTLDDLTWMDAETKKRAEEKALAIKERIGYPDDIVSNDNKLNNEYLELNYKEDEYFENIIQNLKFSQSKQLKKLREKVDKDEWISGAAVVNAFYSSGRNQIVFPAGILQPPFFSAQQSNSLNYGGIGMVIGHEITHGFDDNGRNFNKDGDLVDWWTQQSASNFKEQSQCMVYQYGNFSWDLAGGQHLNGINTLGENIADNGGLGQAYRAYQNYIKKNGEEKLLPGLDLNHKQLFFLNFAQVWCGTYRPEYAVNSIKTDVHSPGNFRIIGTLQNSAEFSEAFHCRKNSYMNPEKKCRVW

C[C@H](O)[C@H]1NC(=O)[C@@H](Cc2c[nH]cn2)NC(=O)[C@@H](CO)NC(=O)[C@@H](Cc2c[nH]cn2)NC(=O)[C@@H](NC(=O)CC[C@H](NC(=O)c2ccc(NCc3cnc4nc(N)[nH]c(=O)c4n3)cc2)C(=O)O)Cc2cn(nn2)CCCC[C@@H](C(=O)NCCOCCOCCOCCOCCOCCOCCOCCOCCOCCOCCC(=O)NCCOCCOCCOCCOCCOCCOCCOCCOCCOCCOCCC(=O)N[C@@H](CCCCNC(=O)CCCC[C@@H]2SC[C@@H]3NC(=O)N[C@@H]32)C(N)=O)NC(=O)[C@@H](C)NC1=O [Folate-hshta Nterm, Folate-hshta-PEG10-PEG10-K(Biotin)] ({Pteroyl-γGlu}-[Pra][dH][dS][dH][dT][dA][Lys(N3)][PEG10][PEG10]K(Biotin)-NH2; triazole 1-7)
percentage of positively stained cells ([1]; OVCAR3, 37° C. 1 hour, before acid treatment): 73.4%
percentage of positively stained cells ([1]; OVCAR3, following acid treatment): 54.2%
affinity relative to folate itself [2]: ~30 fold
binding of PC3 FOLR1− cells [3]: low non-specific binding
displacement by exogenous folate in competitive ELISA [4]: resilient to displacement by exogenous folate
binding affinity of the heterobiligand in presence of folic acid ([4]; folic acid from 0 to 500 nM): virtually unchanged
competition by folic acid ([4]; folic acid greater than 500 nM): partially compete away
percentage of OVCAR3 cells binding ([5]; 0.1 μg/mL folate): 57%
selectivity for FOLR1 (+) cells over FOLR1 (−) cells ([5]; OVCAR3 vs PC-3, flow cytometry): high selectivity for FOLR1 (+) cells
binding against OVCAR3 FOLR1+ cells ([5]; flow cytometry): Dose-dependent binding
selectivity compared with commercially available FOLR1 antibody ([5]; flow cytometry): superior to a commercially available FOLR1 antibody
binding against OVCAR3 FOLR1+ cells ([5]; flow cytometry, listed as lead heterobiligand): best binding
displacement by exogenous folic acid at the cellular level ([5]; increasing exogenous folic acid, flow cytometry): more resilient to folic acid displacement than biotinylated folic acid
percentage of OVCAR3 cells binding ([5]; no folate): 76.6%

Cc1ccc(CCCC(=O)NCCCC[C@H](NC(=O)COCCOCCOCCNC(=O)[C@@H]2CCCCn3cc(nn3)C[C@H](NC(=O)CC[C@H](NC(=O)c3ccc(NCc4cnc5nc(N)[nH]c(=O)c5n4)cc3)C(=O)O)C(=O)N[C@H](Cc3c[nH]cn3)C(=O)N[C@H](CO)C(=O)N[C@H](Cc3c[nH]cn3)C(=O)N[C@H]([C@H](C)O)C(=O)N[C@H](C)C(=O)N2)C(=O)N[C@@H](CCCCNC(=O)CN2CCN(CC(=O)O)CCN(CC(=O)O)CCN(CC(=O)O)CC2)C(N)=O)cc1 [^177Lu-#2809, metal not drawn] ({Pteroyl-γGlu}-[Pra][dH][dS][dH][dT][dA][Lys(N3)][AEEEA]K(Butanoyl(4-(4-MePh)))K(DOTA)-NH2; triazole 1-7)
Comments (deaths / survival) ([6]; ^177Lu dose 0 (peptide alone), 3 mice): Sacrificed on day 24
Comments (deaths / survival) ([6]; ^177Lu dose 0.1 mCi (3.7 MBq), 2 mice): Sacrificed on day 24
Comments (deaths / survival) ([6]; ^177Lu dose 0.25 mCi (9.25 MBq), 2 mice): Sacrificed on day 24
Comments (deaths / survival) ([6]; ^177Lu dose 0.5 mCi (18.5 MBq), 2 mice, listed as DOTA-Heterobiligand Albumin binder conjugate): 1 mouse died on day 10 and 1 mouse died on day 13
Comments (deaths / survival) ([6]; ^177Lu dose 1 mCi (37 MBq), 2 mice): 2 mice died on day 10
Comments (deaths / survival) ([6]; ^177Lu dose 3 mCi (111 MBq), 3 mice, listed as DOTA-Heterobiligand Albumin binder conjugate): 1 mouse died on day 5 and 2 mice died on day 4
BUN level relative to normal mice [7]: 1.5 times

C[C@H](O)[C@H]1NC(=O)[C@@H](Cc2cnc[nH]2)NC(=O)[C@@H](CO)NC(=O)[C@@H](Cc2cnc[nH]2)NC(=O)[C@@H](NC(=O)CC[C@H](NC(=O)c2ccc(NCc3cnc4nc(N)[nH]c(=O)c4n3)cc2)C(=O)O)Cc2cn(nn2)CCCC[C@@H](C(=O)NCC(=O)N[C@@H](Cc2ccccc2)C(=O)N[C@@H](CCCCNC(=O)CN2CCN(CC(=O)O)CCN(CC(=O)O)CCN(CC(=O)O)CC2)C(=O)O)NC(=O)[C@@H](C)NC1=O [compound #7327, Fol-hshta-Gly-Phe-Lys(DOTA)] ({Pteroyl-γGlu}-[Pra][dH][dS][dH][dT][dA][Lys(N3)]GFK(DOTA)-OH; triazole 1-7)
recovery at 4 h, 2 μM [8]: 113%
fraction unbound at 4 h, 2 μM ([8]; plasma): 0.597
recovery at 4 h, 2 μM [9]: 102%
fraction unbound at 4 h, 2 μM ([9]; plasma): 0.591
in vitro Assay Data (NEP assay) [10]: Cleavage of -G-F-K-
half-life at 2 μM [11]: > 115 h
half-life at 2 μM [12]: > 115 h
